Measured values as given in patent publication EP1789452B1, “RELAXIN-CHIMERIC POLYPEPTIDES AND THEIR PREPARATION AND USE” (Janssen Pharmaceutica NV, priority 2004, dated 2006).

Assays:
[1] = target: T1, LGR8 (Homo sapiens, UniProt Q8WXD0); assay: Stimulation of β-galactosidase expression in SK-N-MC/β-gal cells; type: cell-based; settings: highest concentration tested 1 µM
T1 construct: Human LGR8 cDNA containing the complete coding region was PCR amplified from a human testis cDNA pool; expressed in transfected cells
T1 sequence (Q8WXD0 whole entry): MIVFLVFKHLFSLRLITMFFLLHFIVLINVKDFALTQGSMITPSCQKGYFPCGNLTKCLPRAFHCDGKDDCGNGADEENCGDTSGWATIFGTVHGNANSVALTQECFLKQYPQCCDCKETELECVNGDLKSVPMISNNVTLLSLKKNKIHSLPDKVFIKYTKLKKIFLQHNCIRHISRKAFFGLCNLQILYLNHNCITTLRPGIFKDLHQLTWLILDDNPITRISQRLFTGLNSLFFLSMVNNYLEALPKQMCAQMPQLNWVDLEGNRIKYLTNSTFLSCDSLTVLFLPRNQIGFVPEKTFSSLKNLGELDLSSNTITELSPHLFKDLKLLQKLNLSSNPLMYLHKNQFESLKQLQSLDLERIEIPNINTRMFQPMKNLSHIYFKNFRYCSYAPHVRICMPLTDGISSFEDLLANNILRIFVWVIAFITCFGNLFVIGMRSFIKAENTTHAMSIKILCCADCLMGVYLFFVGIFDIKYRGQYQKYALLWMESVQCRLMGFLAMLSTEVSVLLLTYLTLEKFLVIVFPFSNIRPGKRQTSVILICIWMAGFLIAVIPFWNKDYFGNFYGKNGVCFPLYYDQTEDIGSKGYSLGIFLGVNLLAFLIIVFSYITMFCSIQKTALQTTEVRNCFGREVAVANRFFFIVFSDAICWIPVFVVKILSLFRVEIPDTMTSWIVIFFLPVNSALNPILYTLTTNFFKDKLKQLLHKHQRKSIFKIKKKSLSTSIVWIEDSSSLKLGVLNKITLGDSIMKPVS

[2] = target: T2, LGR7 (Homo sapiens, UniProt Q9HBX9); assay: as above; type: cell-based
T2 construct: Human LGR7 cDNA containing the complete coding region was PCR amplified from a human brain cDNA pool; expressed in transfected cells; host or cells: COS-7 (transient, live cells)
T2 sequence (Q9HBX9 1-757): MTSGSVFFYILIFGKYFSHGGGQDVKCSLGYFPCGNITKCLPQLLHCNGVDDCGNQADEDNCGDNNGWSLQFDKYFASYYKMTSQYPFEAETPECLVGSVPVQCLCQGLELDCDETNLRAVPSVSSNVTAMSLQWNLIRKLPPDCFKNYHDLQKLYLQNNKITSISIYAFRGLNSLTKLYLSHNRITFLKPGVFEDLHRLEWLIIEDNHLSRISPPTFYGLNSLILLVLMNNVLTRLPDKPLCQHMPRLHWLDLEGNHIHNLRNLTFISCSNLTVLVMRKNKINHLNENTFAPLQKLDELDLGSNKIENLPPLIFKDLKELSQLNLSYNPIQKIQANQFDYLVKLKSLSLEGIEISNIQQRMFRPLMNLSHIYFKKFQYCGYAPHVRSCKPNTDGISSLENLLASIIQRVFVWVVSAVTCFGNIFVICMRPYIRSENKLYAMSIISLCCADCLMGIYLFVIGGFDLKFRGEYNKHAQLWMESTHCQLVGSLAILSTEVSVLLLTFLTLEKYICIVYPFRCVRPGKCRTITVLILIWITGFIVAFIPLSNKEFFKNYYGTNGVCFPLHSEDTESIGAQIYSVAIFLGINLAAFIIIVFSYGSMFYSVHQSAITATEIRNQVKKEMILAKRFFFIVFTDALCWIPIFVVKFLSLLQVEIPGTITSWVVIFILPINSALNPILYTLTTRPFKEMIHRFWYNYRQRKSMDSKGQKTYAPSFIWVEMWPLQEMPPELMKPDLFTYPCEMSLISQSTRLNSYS

CC[C@H](C)[C@H](NC(=O)[C@H](Cc1ccccc1)NC(=O)[C@H](CCC(=O)O)NC(=O)[C@H](CCCNC(=N)N)NC(=O)CNC(=O)[C@H](CS)NC(=O)[C@H](CC(C)C)NC(=O)[C@H](CCCNC(=N)N)NC(=O)[C@@H](NC(=O)CNC(=O)[C@H](Cc1ccc(O)cc1)NC(=O)[C@@H]1CCCN1C(=O)[C@H](C)NC(=O)[C@H](C)NC(=O)[C@@H](N)CCCNC(=N)N)C(C)C)C(=O)N[C@@H](CCCNC(=N)N)C(=O)N[C@@H](C)C(=O)N[C@H](C(=O)N[C@H](C(=O)N[C@@H](Cc1ccccc1)C(=O)N[C@H](C(=O)N[C@@H](CS)C(=O)NCC(=O)NCC(=O)N[C@@H](CO)C(=O)N[C@@H](CCCNC(=N)N)C(=O)N[C@@H](Cc1c[nH]c2ccccc12)C(=O)O)[C@@H](C)O)[C@@H](C)CC)C(C)C [relaxin-3 B-chain]
activity towards LGR8 [1]: did not activate | activation of LGR7 expressing cells [2]: did not activate
